Results published in US11400081B2, “Compounds” (The University of Sheffield, priority 2017, dated 2022).

What follows are compounds tested against T1, AM2 receptor (CALCRL+RAMP3) (Homo sapiens, UniProt O60896+Q16602) (assay: AM2 receptor inhibition, LANCE TR-FRET cAMP agonist-antagonist competition assay). Details: inhibition of AM induced cAMP activation; 1321N1 cells transfected with CALCRL+RAMP3; read-out: AM2 pIC50 (converted).
T1 construct: host or cells: 1321N1
Type: cell-based
Experimental: Compounds were assessed for their ability to inhibit ligand-induced elevations of cAMP, using the Perkin Elmer LANCE cAMP assay using commercially-available cells expressing a specific receptor of interest using the following general procedure:
Compounds were prepared in dimethyl sulfoxide (DMSO—99.9% pure) (Sigma Aldrich, Cat #: D4540) added to powder stocks to produce a 20 mM solution (100% DMSO) that was sonicated at 37° C. for 10 minutes to fully dissolve the compounds. The 20 mM stocks were diluted further in DMSO to produce a 2 mM solution that was sonicated at 37° C. for 10 minutes. 2 mM stocks were dissolved in assay/stimulation buffer to produce a 400 μM solution that was sonicated at 37° C. for 10 minutes for all cAMP assays. All stocks were stored at −20° C. Then serial dilution (Dilution factor 10) was performed to achieve the desire experimental concentrations.
Competition assays were performed according to the manufactures instructions using LANCE® TR-FRET cAMP assay kit (Perkin Elmer, Cat #: AD0264). Serial dilutions (3 μl/well) of the molecules were plated in a 384-well OptiPlate (Perkin Elmer, Cat #: 6007299) in duplicates. Appropriate controls (100% stimulation: Forskolin and 0% stimulation: Vehicle control) (6 μl/well) were included in each plate for data normalization. Following the compound addition, 6 μl of G-protein coupled receptor overexpressing cells/Alexa Fluor antibody solution (1:100 dilution) was added in each well at a desired density of 2500 cells/well. The overexpressing cell lines were purchased from DiscoveRx, Birmingham, UK. After spinning the plate at 1000 rpm for 1 minute and vortexing briefly, the cells were pre-incubated with the compounds for 30 minutes at room temperature (covered). Then 3 μl of the equivalent peptide ligand (EC50 dose) was added to all the wells except vehicle and forskolin controls. The plate were then spun down at 1000 rpm for 1 minute and once finished they were vortexed briefly and covered. Cells were stimulated in the presence of the ligands for 15 minutes at room temperature. After stimulation 12 μl of detection mix (Europium-Chelate streptavidin/biotinylated cAMP tracer solution) was added to all wells and incubated for 60 minutes at room temperature. The plate was then read on the Enspire multimode Plate reader (Perkin Elmer), at; 320/340 nm excitation and 615/665 nm emission was recorded.
• 28 mL Hank's Balanced salt solution (+MgCl2, +CaCl2)—(Thermo Fisher Cat #:14170112) • 150 μl HEPES (1M)—(Thermo Fisher Cat #:15630080) • 400 μl Stabilizer (DTPA) Purified BSA (7.5%)—(Perkin Elmer, Cat #: CR84-100) • 60 μl IBMX (250 mM)—(Sigma Aldrich, Cat #: 15879) Specific cAMP/Agonist-Antagonist Competition Assays
The ability of a compound to inhibit the AM induced cAMP activation in AM2 receptor-expressing cells (1321N1 cells transfected with CALCRL+RAMP3, sourced from DiscoverX catalogue number 95-0169C6) was assessed using the protocol above.

T1 sequence (Q16602 23-461): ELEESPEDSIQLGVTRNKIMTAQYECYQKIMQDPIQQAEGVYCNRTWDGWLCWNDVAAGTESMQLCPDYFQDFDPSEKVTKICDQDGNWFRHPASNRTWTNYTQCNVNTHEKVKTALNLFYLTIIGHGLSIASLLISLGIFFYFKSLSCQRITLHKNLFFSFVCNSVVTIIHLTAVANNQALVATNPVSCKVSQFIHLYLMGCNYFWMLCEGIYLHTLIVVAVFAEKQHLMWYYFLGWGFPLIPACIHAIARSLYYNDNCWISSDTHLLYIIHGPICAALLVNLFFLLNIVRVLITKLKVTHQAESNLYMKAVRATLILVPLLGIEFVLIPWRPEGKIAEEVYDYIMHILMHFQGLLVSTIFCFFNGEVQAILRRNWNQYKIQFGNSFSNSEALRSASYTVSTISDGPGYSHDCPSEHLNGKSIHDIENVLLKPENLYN
T1 sequence (O60896 24-148): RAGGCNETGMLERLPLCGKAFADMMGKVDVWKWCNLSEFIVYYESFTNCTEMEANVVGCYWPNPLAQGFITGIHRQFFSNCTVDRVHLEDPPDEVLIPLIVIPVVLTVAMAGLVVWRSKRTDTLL

Row | SMILES | IC50 [nM]
1 | CNCc1ccccc1CN(CC(=O)Nc1ccc2c(c1)CC1(C2)C(=O)Nc2ncccc21)C(=O)C1CCN(C(=O)NC(C)C)CC1 (stereo not drawn) [Example 73, N1-isopropyl-N4-(2-((methylamino)methyl)benzyl)-N4-(2-oxo-2-((2′-oxo-1,1′,2′,3-tetrahydrospiro[indene-2,3′-pyrrolo[2,3-b]pyridin]-5-yl)amino)ethyl)piperidine-1,4-dicarboxamide 2,2,2-trifluoroacetate] | 8.32
2 | CNCc1cccc(F)c1CN(CC(=O)Nc1ccc2c(c1)CC1(C2)C(=O)Nc2ncccc21)C(=O)C(C)(C)C (stereo not drawn) [Example 56, N-(2-Fluoro-6-((methylamino)methyl)benzyl)-N-(2-oxo-2-((2′-oxo-1,1′,2′,3-tetrahydrospiro[indene-2,3′-pyrrolo[2,3-b]pyridin]-5-yl)amino)ethyl)pivalamide] | 151
3 | CC(C)NCc1ccccc1CN(CC(=O)Nc1ccc2c(c1)CC1(C2)C(=O)Nc2ncccc21)C(=O)C(C)(C)C (stereo not drawn) [Example 19, N-(2-((Isopropylamino)methyl)benzyl)-N-(2-oxo-2-((2′-oxo-1,1′,2′,3-tetrahydrospiro[indene-2,3′-pyrrolo[2,3-b]pyridin]-5-yl)amino)ethyl)pivalamide] | 89.1
4 | CNCc1ccccc1CN(CC(=O)Nc1ccc2c(c1)CC1(C2)C(=O)Nc2ncccc21)C(=O)N1CCC(OC)C1 (stereo not drawn) [Example 67, 3-Methoxy-N-[[2-(methylaminomethyl)phenyl]methyl]-N-[2-oxo-2-[(2-oxospiro[1H-pyrrolo[2,3-b]pyridine-3,2′-indane]-5′-yl)amino]ethyl]pyrrolidine-1-carboxamide] | 64.6
5 | CN(C)CCNCc1ccccc1CN(CC(=O)Nc1ccc2c(c1)CC1(C2)C(=O)Nc2ncccc21)C(=O)C(C)(C)C (stereo not drawn) [Example 7, N-(2-(((2-(Dimethylamino)ethyl)amino)methyl)benzyl)-N-(2-oxo-2-((2′-oxo-1,1′,2′,3-tetrahydrospiro[indene-2,3′-pyrrolo[2,3-b]pyridine]-5-yl)amino)ethyl)pivalamide] | 126
6 | CNCc1ccccc1CN(CC(=O)Nc1ccc2c(c1)CC1(C2)C(=O)Nc2ncccc21)C(=O)C1CCN(C(C)=O)C1 (stereo not drawn) [Example 74, 1-acetyl-N-(2-((methylamino)methyl)benzyl)-N-(2-oxo-2-((2′-oxo-1,1′,2′,3-tetrahydrospiro[indene-2,3′-pyrrolo[2,3-b]pyridin]-5-yl)amino)ethyl)pyrrolidine-3-carboxamide 2,2,2-trifluoroacetate] | 15.5
7 | CC(c1ccccc1CN(CC(=O)Nc1ccc2c(c1)CC1(C2)C(=O)Nc2ncccc21)C(=O)C(C)(C)C)N1CCC1 (stereo not drawn) [Example 25, N-(2-(1-(Azetidin-1-yl)ethyl)benzyl)-N-(2-oxo-2-((2′-oxo-1,1′,2′,3-tetrahydrospiro[indene-2,3′-pyrrolo[2,3-b]pyridin]-5-yl)amino)ethyl)pivalamide] | 75.9
8 | CC(C)(C)C(=O)N(CC(=O)Nc1ccc2c(c1)CC1(C2)C(=O)Nc2ncccc21)Cc1ccccc1CNCCF (stereo not drawn) [Example 17, N-(2-(((2-Fluoroethyl)amino)methyl)benzyl)-N-(2-oxo-2-((2′-oxo-1,1′,2′,3-tetrahydrospiro[indene-2,3′-pyrrolo[2,3-b]pyridin]-5-yl)amino)ethyl)pivalamide] | 12.3

More lines, now with the values ahead:

Row | IC50 [nM] | SMILES
9 | 501 | CNCc1ccccc1CN(CC(=O)Nc1ccc2c(c1)CC1(C2)C(=O)Nc2ncccc21)C(=O)N1CCC2(CCNCC2)C1 (stereo not drawn) [Example 90, N-(2-((Methylamino)methyl)benzyl)-N-(2-oxo-2-((2′-oxo-1,1′,2′,3-tetrahydrospiro[indene-2,3′-pyrrolo[2,3-b]pyridin]-5-yl)amino)ethyl)-2,8-diazaspiro[4.5]decane-2-carboxamide]
10 | 234 | CNCc1ccccc1CN(CC(=O)Nc1ccc2c(c1)CC1(C2)C(=O)Nc2ncccc21)C(=O)N(C)C (stereo not drawn) [Example 85, 2-(3,3-Dimethyl-1-(2-((methylamino)methyl)benzyl)ureido)-N-(2′-oxo-1,1′,2′,3-tetrahydrospiro[indene-2,3′-pyrrolo[2,3-b]pyridin]-5-yl)acetamide]
11 | 60.3 | CNCc1ccccc1CN(CC(=O)Nc1ccc2c(c1)C[C@@]1(C2)C(=O)Nc2ncccc21)C(=O)C(C)(C)CC(F)(F)F [Example 97, 4,4,4-Trifluoro-2,2-dimethyl-N-[[2-(methylaminomethyl)phenyl]methyl]-N-[2-oxo-2-[[(3R)-2-oxospiro[1H-pyrrolo[2,3-b]pyridine-3,2′-indane]-5′-yl]amino]ethyl]butanamide 2,2,2-trifluoroacetate]
12 | 1.35 | CNCc1ccccc1CN(CC(=O)Nc1ccc2c(c1)CC1(C2)C(=O)Nc2ncccc21)C(=O)C1(C(F)(F)F)CCC1 (stereo not drawn) [Example 76, N-[[2-(methylaminomethyl)phenyl]methyl]-N-[2-oxo-2-[(2-oxospiro[1H-pyrrolo[2,3-b]pyridine-3,2′-indane]-5′-yl)amino]ethyl]-1-(trifluoromethyl)cyclobutanecarboxamide 2,2,2-trifluoroacetate]
13 | 44.7 | CNCc1ccccc1CN(CC(=O)Nc1ccc2c(c1)CC1(C2)C(=O)Nc2ncccc21)C(=O)C12CC(N)(C1)C2 (stereo not drawn) [Example 77, 3-amino-N-[[2-(methylaminomethyl)phenyl]methyl]-N-[2-oxo-2-[(2-oxospiro[1H-pyrrolo[2,3-b]pyridine-3,2′-indane]-5′-yl)amino]ethyl]bicyclo[1.1.1]pentane-1-carboxamide bis(2,2,2-trifluoroacetate)]
14 | 263 | CNCc1ccccc1CN(CC(=O)Nc1ccc2c(c1)CC1(C2)C(=O)Nc2ncccc21)C(=O)N(C)OC (stereo not drawn) [Example 82, 2-(3-Methoxy-3-methyl-1-(2-((methylamino)methyl)benzyl)ureido)-N-(2′-oxo-1,1′,2′,3-tetrahydrospiro[indene-2,3′-pyrrolo[2,3-b]pyridin]-5-yl)acetamide]
15 | 151 | CNCc1ccccc1CN(CC(=O)Nc1ccc2c(n1)CC1(C2)C(=O)Nc2ncccc21)C(=O)C(C)(C)C (stereo not drawn) [Example 104, N-(2-((methylamino)methyl)benzyl)-N-(2-oxo-2-((2′-oxo-1′,2′,5,7-tetrahydrospiro[cyclopenta[b]pyridine-6,3′-pyrrolo[2,3-b]pyridin]-2-yl)amino)ethyl)pivalamide]
16 | 39.8 | CC(C)(C)C(=O)N(CC(=O)Nc1ccc2c(c1)C[C@@]1(C2)C(=O)Nc2ncccc21)C1CNCc2ccccc21 (stereo partly drawn) [Example 101, 2,2-Dimethyl-N-[2-oxo-2-[(2-oxospiro[1H-pyrrolo[2,3-b]pyridine-3,2′-indane]-5′-yl)amino]ethyl]-N-(1,2,3,4-tetrahydroisoquinolin-4-yl)propanamide 2,2,2-trifluoroacetate]
17 | 309 | CNCc1ccccc1CN(CC(=O)Nc1ccc2c(c1)C[C@@]1(C2)C(=O)Nc2ncccc21)C(=O)C12CC(NC(C)=O)(C1)C2 [Example 100, 3-Acetamido-N-[[2-(methylaminomethyl)phenyl]methyl]-N-[2-oxo-2-[[(3R)-2-oxospiro[1H-pyrrolo[2,3-b]pyridine-3,2′-indane]-5′-yl]amino]ethyl]bicyclo[1.1.1]pentane-1-carboxamide 2,2,2-trifluoroacetate]
18 | 14.8 | CNCc1ccccc1CN(CC(=O)Nc1ccc2c(c1)CC1(C2)C(=O)Nc2ncccc21)C(=O)C1CCOC1 (stereo not drawn) [Example 80, N-(2-((Methylamino)methyl)benzyl)-N-(2-oxo-2-((2′-oxo-1,1′,2′,3-tetrahydrospiro[indene-2,3′-pyrrolo[2,3-b]pyridin]-5-yl)amino)ethyl)tetrahydrofuran-3-carboxamide]
